Reference: publication PMC8839615 (Molecules, 2022)
Counter-ions that a name gives are not always drawn.

How the values were obtained:
[1] = cited from earlier work
[2] = Pharmacokinetics study in rats after oral administration (plasma, LC-MS/MS); assay type: in vivo, Wistar rats; conditions: for CLZ / Cmax / VZ / half-life: mean ± SD, n = 6; for half-life: po
Procedure: The liquid chromatographic separation process was operated on an XR LC-20AD Prominence^TM UFLC system (Shimadzu, Japan). At a column temperature at 40 °C, substances were analyzed on an Atlantis T3 (2.1 × 150 mm, 3 μm) column. The mobile phase system was water with 0.1% formic acid (A) and methanol with 0.1% formic acid (B). A flow rate of 0.4 mL/min and sample injection volume of 5 μL were used for gradient elution. The gradient elution program was established as follows: 0.01–0.3 min, 5% B; 0.3–0.8 min, 5–50% B; 0.8–1.5 min, 50–70% B; 1.5–2.8 min, 70–85% B; 2.8–5.0 min, 85% B; 5.0–5.01 min, 85–5% B; and 5.01–7.0 min, 5% B.
Mass spectrometry quantitative analysis was conducted on a Q TRAP 4000 MS/MS system to collect data, and then analyst software (version 1.6, AB Sciex, Framingham, MA, USA) was used to handle data. In the MRM mode and taking nitrogen as the circulating gas, electrospray positive ionization (ESI+) was used to analyze four substances. The detailed MS parameters were established as follows: gas 1, 50 psi; gas 2, 40 psi; air curtain gas, 40 psi; ion spray voltage, 5500 V; ion source temperature, 500 °C. Declustering potential (DP), entrance potential (EP), collision energy (CE), and cell exit potential (CXP) were performed as parameters optimized for substances in the MRM mode.
(§1) The plasma and urine samples were kept at indoor temperature and dissolved before analysis. First, 100 µL of sample was added to a 1.5 mL Eppendorf tube together with 10 µL of ISs solution. Then, 300 µL of methanol:acetonitrile (1:1, v/v) was added, vortexed for 3 min, sonicated for 2 min in an ice-water bath, and centrifuged for 8 min at 16,000 rpm to deposit protein. The supernatant was transferred to a 1.5 mL Eppendorf tube, desiccated under airflow at room temperature, re-dissolved in 50 μL methanol, vortexed for 3 min, sonicated for 5 min in an ice-water bath, and centrifuged for 8 min at 16,000 rpm for LC-MS/MS analysis. For tissue and fecal samples, 100 mg of each sample was precisely weighed and added to a 5 mL Eppendorf tube, then mixed with 1 mL normal saline. The tissue cells were destructed by homogenization to mix with normal saline sufficiently, and the homogenization was achieved after centrifugation for 10 min at 4000 rpm. The methods to precipitate the protein of tissue and feces homogenization were the same as those of the plasma samples.
Eighteen male Wistar rats were separated into three groups with six rats in every group based on different oral medicines, containing a β-CD-DM group (inclusion compounds of DM with β-CD), DM group (single DM), and β-CD group (single β-CD). Each rat was administered to orally, and the dosage of every group was computed by the equal transformation of human and rat surface area of the body by the clinical dosage; therefore, 6 mg/kg of the β-CD-DM group (DM:β-CD(6 mg/kg:393 mg/kg) mixed evenly), 6 mg/kg of the DM group, and 393 mg/kg of the β-CD group were obtained. Blood samples (250 μL) were obtained from the orbital venous plexus at 0, 0.083, 0.25, 0.5, 0.75, 1, 1.5, 2, 4, 6, 8, 12, 24, 36 h after oral delivery. Then, the blood was centrifuged for 10 min at 4000 rpm to obtain the separation of plasma, and the plasma was stored in at −80 ℃ before application. The plasma samples of the rats in each group were treated according to the contents of Section 2.4.1, and then analyzed according to Section 2.2.1. The plasma concentrations of β-CD, DM, ginsenoside Re (IS 1), and psoralen (IS 2) were calculated by the ratio of peak area between analytes and internal standards. The pharmacokinetic parameters of the three groups of analytes were handled by adopting pharmacokinetic software DAS 2.1 found on non-compartment analysis. Then, the obtained main pharmacokinetic parameters of every group were used for independent sample T-test with SPSS v24.0; p < 0.05 was considered as a difference, and p < 0.01 was considered as a significant difference.

[3] = Tissue distribution study of β-CD in rats; assay type: in vivo, Wistar rats
Procedure: as §1, with “The methods to precipitate the protein of tissue and feces homogenization were the same as those of the plasma samples.” left out
Eighteen male Wistar rats were separated into three groups with six rats in every group based on different times after administration, containing group A (30 min after oral administration), group B (1h after oral administration), and group C (4 h after oral administration). […] The tissue homogenization samples of the rats in each group were treated according to the contents of Section 2.4.1, and then analyzed according to Section 2.2.1.

[4] = analyte DM in rat plasma, DM group (single DM), 6 mg/kg oral
[5] = analyte DM in rat plasma, β-CD-DM group (inclusion compounds, DM:β-CD 6 mg/kg:393 mg/kg) oral
[6] = analyte β-CD in rat plasma, β-CD group (single β-CD), 393 mg/kg oral
[7] = analyte β-CD in rat plasma, β-CD-DM group (inclusion compounds, DM:β-CD 6 mg/kg:393 mg/kg) oral

COc1ccc2c(c1)[C@]13CCCC[C@@H]1[C@H](C2)N(C)CC3 [DM, Dextromethorphan hydrobromide, reference compound]
water solubility [1]: poorly water-soluble | CLZ [2, 4]: 6.55 × 10^1 ± 8.60 L/h/Kg | Cmax [2, 4]: 2.91 × 10^1 ± 3.17 ng/mL/h | VZ [2, 4]: 1640 ± 996 L/kg | CLZ [2, 5]: 44.1 ± 12.5 L/h/kg | Cmax [2, 5]: 3.27 × 10^1 ± 4.67 ng/mL/h | VZ [2, 5]: 1900 ± 643 L/kg | half-life ([2]; male, Wistar, rat, in vivo, 6 mg/kg, analyte DM in rat plasma, DM group (single DM), 6 mg/kg oral): 16.8 h | half-life ([2]; male, Wistar, rat, in vivo, 6 mg/kg, analyte DM in rat plasma, β-CD-DM group (inclusion compounds, DM:β-CD 6 mg/kg:393 mg/kg) oral): 30.4 h

OC[C@H]1O[C@@H]2O[C@H]3[C@H](O)[C@@H](O)[C@@H](O[C@H]4[C@H](O)[C@@H](O)[C@@H](O[C@H]5[C@H](O)[C@@H](O)[C@@H](O[C@H]6[C@H](O)[C@@H](O)[C@@H](O[C@H]7[C@H](O)[C@@H](O)[C@@H](O[C@H]8[C@H](O)[C@@H](O)[C@@H](O[C@H]1[C@H](O)[C@H]2O)O[C@@H]8CO)O[C@@H]7CO)O[C@@H]6CO)O[C@@H]5CO)O[C@@H]4CO)O[C@@H]3CO [β-CD, β-cyclodextrin]
time at which concentration in entire tissues reached its peak ([3]; 393 mg/kg single oral, heart, liver, spleen, lung, kidney, sampled 30 min, 1 h, 4 h): 1 h | accumulation in tissues ([3]; 4 h after 393 mg/kg single oral, tissue concentration decreased significantly): without noticeable accumulation | CLZ [2, 6]: 32.7 ± 10.2 L/h/kg | VZ [2, 6]: 400 ± 176 L/kg | CLZ [2, 7]: 3.03 × 10^1 ± 6.18 L/h/Kg | VZ [2, 7]: 354 ± 71.6 L/kg | half-life ([2]; male, Wistar, rat, plasma, 393 mg/kg, analyte β-CD in rat plasma, β-CD group (single β-CD), 393 mg/kg oral): 8.33 ± 2.46 h | half-life ([2]; male, Wistar, rat, plasma, 393 mg/kg, analyte β-CD in rat plasma, β-CD-DM group (inclusion compounds, DM:β-CD 6 mg/kg:393 mg/kg) oral): 8.21 ± 1.47 h | concentration at 30 min ([2]; male, Wistar, rat, plasma, 30 min after oral administration, 393 mg/kg, read-out: concentration of β-CD in rat plasma): ~3500 ng/mL | concentration at 1 h ([2]; male, Wistar, rat, plasma, 1 h after oral administration, 393 mg/kg, tissue concentration similar, read-out: concentration of β-CD in rat plasma): ~3000 ng/mL | AUC0–t as share of AUC0–∞ ([2]; β-CD in rat plasma, oral, sampling to 36 h): more than 96% | time until almost wholly removed from rat plasma ([2]; β-CD, oral administration): ≤ 36 h
